The record followed here is a melting point compilation (Tetko et al.; mined from patent text by program, amines drawn as free bases though some values may be those of a salt).

SMILES strings stand for the structures.

As usually defined, the melting point is the temperature of the solid-liquid transition. `Cc1cc(-c2cn(-c3cccc(OCCCl)c3)c3ncnc(N)c23)cc(C)c1OCc1ccccc1` registered a melting point of 188 to 190 °C. As for `Nc1nc(C(F)(F)C(F)(F)F)nn1-c1c(Cl)cc(C(F)(F)F)cc1Cl`, the figure is 181 to 183 °C; as for `CCOc1cc(C2COCCC2NC(=O)c2ccc(C(=O)N(C(C)C)C(C)C)cc2)ccc1OC` (stereo not given), 166 to 168 °C. The result for `Clc1ccc(-c2cc(C3CCN(CCCc4ccccc4)CC3)n[nH]2)cc1` reads 165 to 167 °C; that for `CCOc1cc(N(CC)CC)ccc1C1(c2c(C)n(CC)c3ccccc23)OC(=O)c2ccccc21` (stereo not given), 193 °C.

In turn, `COc1ccccc1N1CCN(Cc2ccc(O)cc2)CC1` gave a melting point of 172 °C. As for `CC(COc1c(-c2ccccc2)c(=O)oc2ccccc12)CN1CCCCC1` (stereo not given), the figure is 86 to 87 °C; as for `c1ccc(-c2nc3ncccc3o2)cc1`, 125 to 127 °C.

In turn, `C=C(CNNC(=O)OC(C)(C)C)c1ccccc1` showed a melting point of 153 to 154 °C. As for `COc1c(C)c(C)c(OC)c(C(O)(c2ccc(C(C)C)cc2)C2CCN(Cc3ccccc3)CC2)c1C` (stereo not given), the figure is 105 to 108 °C; as for `CC(=O)Nc1ccccc1C(C)=O`, 99 to 100 °C. As for `O=C(CC(=O)C(F)(F)F)Nc1cc(-c2ccncc2)n[nH]1`, the figure is 364 to 366 °C; as for `Nc1ncc(-c2ccc3nnn(Cc4ccc5ncccc5c4)c3n2)cn1`, 244 to 246 °C. As for `O=Cc1c[nH]c2c1ccc1c3cc(-c4ccc(OC(F)(F)F)cc4)ccc3[nH]c12`, the figure is over 250 °C. With `CCOCC(=NNc1ccc(C(F)(F)F)cc1)C(=O)NCc1ccc(Cl)nc1`, the melting point was 98 to 99 °C. Compound `COC(=O)C(=O)c1ccc(OCCOc2ccc3ccccc3c2)cc1` showed a melting point of 155 to 157 °C.

As to `CCOC(=O)CCc1ccc(OCCN2CCCC2=O)cc1O`, the melting point is 112 to 115 °C. Take `COc1ccc(F)cc1OCC=O`: the melting point was in the range of 92.5 to 95 °C. The result for `CC(=O)c1cc(N(C)C)ccc1NC(=O)c1cccc(OCc2ccccc2)c1` reads 147 to 149 °C. The result for `Nc1c(C(=O)c2cccnc2N2CCOCC2)oc2ccc(Cl)cc12` reads 95 to 97 °C; that for `O=C(O)c1ccc(NC(=O)C(CS)Cc2ccccc2)cc1` (stereo not given), 166 to 168 °C. The result for `ON=c1cc(-c2cn3cccc3cn2)oc2ccc(OCCc3ccc(F)cc3)cc12` reads 248 to 250 °C; that for `COc1cc(C=CC(=O)C=Cc2cc(OC)cc(OC)c2)cc(OC)c1`, 124 to 126 °C. The compound `Cc1nnc(-c2ccnc(Nc3ccccn3)c2)o1` came in with a melting point of 196 to 197 °C. Compound `CCCc1c(C(=O)NCc2ccc(-c3ccc(OCC(=O)O)c(Br)c3)cc2)cnn1-c1ccccc1` came in with a melting point of 204 to 206 °C. As for `COc1ccc(CSC#N)cc1OCc1ccccc1`, the figure is 70 to 74 °C; as for `Cc1cc(F)c2ncc(C(=O)NNc3ccc(Cl)cc3)c(O)c2c1`, 256 to 258 °C; as for `COCCn1c(S(C)=O)nc(-c2ccc(F)cc2)c1-c1ccnc(Nc2ccccc2)c1` (stereo not given), 83 to 85 °C. As for `Cc1c(CC(=O)O)c2ccccc2n1-c1cc(Cl)nc(Cl)n1`, the figure is 205 to 207 °C.

As for `CCCc1c(CSc2nccc(OCC(=O)O)n2)ccc(C(C)=O)c1O`, the melting point was 174 to 178 °C. As for `CN(C)c1ccc2c(c1)C(=O)OC2`, the figure is 182 to 185 °C; as for `Cc1ccc(Cl)c2sc(N)nc12`, 206 °C. On to `CC(C)(C)OC(=O)NCCn1c(=S)[nH][nH]c(=O)c1=O`, for which the melting point is 160 °C. In the case of `Cc1ncc(CO)c(CN(C)C)c1O`, the melting point fell in the range of 146 to 151 °C. The result for `O=C(O)Cc1ccc(CN2CCN(c3ccccc3C(=O)O)CC2)cc1` reads 179 to 181 °C. As for `O=C(O)CCCC=C1SC[C@H]2[C@@H]1N(Cc1ccccc1)C(=O)N2Cc1ccccc1`, the figure is 79 to 82 °C; as for `COc1cc(C=O)ccc1OCC(=O)c1cc(C(C)(C)C)c(O)c(C(C)(C)C)c1`, 99 to 100 °C.

Take `CC(C)(O)c1cc(Br)ccc1N`: the melting point was 62 to 63 °C. The result for `O=C(O)CCCCCCCCCCSSCCCCCCCCCCC(=O)O` reads 94 °C.

With `Nc1ccc(N2CCN(Cc3ccccc3)CC2)cc1C(=O)O`, the melting point worked out at 242 °C. The result for `CCc1nc2ccc(N=C=S)cc2s1` reads 69 to 73 °C; that for `COc1ccc(-c2nccc3c(CC(=O)O)cccc23)cc1`, 210 to 211 °C. The result for `COc1ccc(-c2[nH]nc3c2C(=O)c2c(NC(=O)NNC(=O)c4cccc(N)c4)cccc2-3)cc1` reads 250 °C. The result for `C=C1CCC2C3CCC4CC(O)CCC4(C)C3C(N)CC12C` (stereo not given) reads 144 to 149 °C; that for `CC(C)(C)OC(=O)N1CCc2c(n(CCO)c3c(Cl)cc(Cl)cc23)CC1`, 183 to 184 °C. `CCn1cc(C(=O)O)c(=O)c2cc(F)c(N3CC4CCC3CN4)nc21` (stereo not given) showed a melting point of 250 to 253 °C.

`O=C1N(Cc2ccc(C(F)(F)F)o2)c2ccccc2C12COc1cc3c(cc12)OC(F)(F)O3` (stereo not given) gave a melting point of 59 to 60 °C. The result for `O=C1c2ccccc2C(=O)N1CCCCSc1ccncc1` reads 106 to 108 °C; that for `CCCOc1cc2c(cc1C1CCCc3oc(/C=C/C(=O)O)cc31)C(C)(C)CCC2(C)C` (stereo not given), 195 to 196 °C. Consider `ON=C(c1ccccc1)c1ccc(C(=NO)c2ccc(C(=NO)c3ccccc3)cc2)cc1`, for which the melting point lay in the range of 224 to 225 °C. As for `CC(C)c1cccc(C(C)C)c1OS(=O)(=O)C(OC(N)=O)c1c(C(C)C)cccc1C(C)C` (stereo not given), the figure is 95 to 101 °C; as for `CC(C)n1nc(-c2cc(C#N)cnc2-c2ccccc2)ccc1=O`, 133 to 135 °C; as for `CC(=O)N1CC(CCN2CC=C(c3ccccc3)CC2)c2ccccc21` (stereo not given), 109 to 111 °C.

Regarding `N#Cc1ccc(C2C(=O)N(Cc3ccc(F)cc3)Cc3cncn32)cc1` (stereo not given), the melting point was 132 to 135 °C. As for `CC(C)(C)OC(=O)n1nnc(-c2ccccc2)c1I`, the figure is 87 to 90 °C; as for `Fc1cccc(F)c1Cn1c(-c2c(F)cccc2F)nc2ccccc21`, 145 °C; as for `O=S(=O)(c1cccs1)N(CC1CC1)c1cccc2cc(-c3ncc(CO)s3)[nH]c12`, 174 °C. As for `CN(C)S(=O)(=O)N1CCN(S(=O)(=O)c2ccc(Oc3ccccc3)cc2)[C@@H](C(=O)NO)C1`, the figure is 153 to 155 °C; as for `COc1ccc(-c2c(N)cnc3ccc(Cl)cc23)cc1OC`, 187 to 190 °C. As for `Clc1ccc2c(c1)N(c1ncnc3cc(Cl)ccc13)CC2`, the figure is 189 °C; as for `CCN(CC)CCn1nc2c3c(cccc31)C(=O)c1c(NCCNCCO)cccc1-2`, 129 to 132 °C. In the case of `Cc1oc(-c2ccccc2)nc1COc1ccc(CN(O)C(N)=O)cc1`, the melting point fell in the range of 157 to 159 °C. As for `Cc1noc(C)c1S(=O)(=O)n1nnc2cc3c(cc21)OC(F)(F)O3`, the figure is 120 to 123 °C. The result for `Cn1cc(C(=O)O)c(=O)c2cc(F)c(F)cc21` reads 284 to 287 °C; that for `CCCCOc1c(\C(C)=C/C=C/C(C)=C/C(=O)O)cc(C(C)(C)C)cc1C(C)(C)C`, 148 to 151 °C.

`COc1ccc2nc(COc3cccc(OCc4cccc(C)c4C(=O)O)c3)ccc2c1`: the melting point was 176 to 179 °C. The result for `COc1ccc2c(=O)c(-c3ccccc3)c(SCc3ccccc3)oc2c1` reads 153 to 154 °C. `CCOC(=O)C1=C(COCCNC(=O)c2cccnc2)NC(C)=C(C(=O)OC)C1c1ccccc1Cl` (stereo not given): the melting point was in the range of 81 to 84 °C.

For the compound `O=C(c1c[nH]c2cc(O)ccc12)C1CSC(c2cccnc2)N1` (stereo not given), the melting point lay in the range of 203 to 205 °C. As for `CC(=O)n1ccc(O)n1`, the figure is 191 °C; as for `CC(C)c1nc(Cl)c([N+](=O)[O-])c(Cl)n1`, 32 °C; as for `COC(=O)[C@H](CN1CCC(=C2c3ccccc3C=Cc3ccccc32)CC1)NC(=O)OCc1ccccc1`, 116 to 119 °C.

Take `O=C(O)[C@@H]1C[C@@H](c2ccccc2)CN1C(=O)c1ccccc1Br`: the melting point was 146 to 147 °C. The compound `CC(C)CC1(C(CCN2C(=O)c3ccc(N)cc3C2=O)C(=O)NO)CCN(CCc2ccccc2)C1=O` (stereo not given) registered a melting point of 187 to 188 °C. `CCN/C(=C1\C(=O)c2ccccc2S1=O)c1ccccc1` (stereo not given) showed a melting point of 183 to 185 °C.

The compound `Cc1ccc(-c2cc(C(=O)O)nn2Cc2ccc(C)c(Cl)c2)cc1C` displayed a melting point of 163 °C. `CC(=O)OCCNc1ccc(Cl)cc1C(=O)c1ccccc1F` showed a melting point of 48 to 55 °C.

Turning to `CC(CO)CCCC(C)C1CC=C2C3=C(CCC21C)C1(C)CCC(O)C(C)(C)C1CC3` (stereo not given), the melting point is 180 to 181 °C. The compound `N#CC(CCC(=O)O)(CC(=O)O)c1ccc(Cl)c(Cl)c1` (stereo not given) had a melting point of 152 °C. The result for `O=Cc1ccc(-c2ccc3ncnc(Nc4ccc(OCc5cccc(F)c5)c(Cl)c4)c3c2)o1` reads 230 to 234 °C; that for `O=C(NCC1CCCCCC1)c1cc(-c2ccc(Cl)c(C(=O)O)n2)ccc1Cl`, 189 to 190 °C; that for `O=C(O)c1cn(O)c2ccc3[nH]c(=O)sc3c2c1=O`, over 300 °C. The result for `CC(=O)N1CC(=O)N(C)C(=O)N1c1cc(Cl)c(C(C#N)c2ccc(Cl)cc2)c(Cl)c1` (stereo not given) reads 178 °C. With `C=CCNC(=S)Nc1cc(=N)n2c(n1)SCC2`, the melting point lay in the range of 225 to 226 °C. The result for `CN(C)c1[nH]c(=S)n(C2CCc3ccccc3C2)c1N(C)C` (stereo not given) reads 182 to 184 °C. As for `CCOC(=O)C1=C(C)NC(=S)N(C(=O)OCC)C1c1ccccc1Cl` (stereo not given), the melting point lay within 126 to 128 °C. The result for `COc1ccc2cccc(C#N)c2c1` reads 62 to 66 °C; that for `O=C1CCCC(c2ccc(Cl)cc2)N1c1cccnc1` (stereo not given), 107 to 108 °C; that for `CCOC(=O)c1ncc(-c2ccc(Br)cc2)o1`, 120 to 122 °C.

Compound `CNC(=O)c1cc(Cl)cc(Cl)c1NC(=O)c1cc(Br)nn1-c1ccccc1Cl` returned a melting point of 209 to 210 °C.
